Molecules are shown by their SMILES. Entries after “also recorded” stand apart in the source; their conditions may differ. Where two headings read alike, the source gives them in different places.

Data set [1] has as its system cavernoma lesions in the brain of CCM1-ECKO mice. In words: Cavernoma lesions in the brain of CCM1-ECKO mice. Format: in vivo, mouse. The source says:
(§1) CCM1-ECKO and CCM2-ECKO have been obtained from CCM1-flox/flox and CCM2-flox/flox mice as described in details above for CCM3-ECKO mice, see also Maddaluno et al, 2013 and Boulday et al, 2011.

For another data set, the system named is CCM3-ECKO mice. In words: Bleeding and mortality in drug-treated CCM3-ECKO mice. The following applies: mouse, in vivo. As to the method:
Sulindac sulfide (Sigma) and sulindac sulfone (Sigma) were both dissolved in DMSO and further diluted 1:50 in corn oil. They were administered intragastrically, daily (30 mg/kg body weight), starting one day after the induction of recombination. The control mice were treated in parallel with vehicle only (corn oil plus 2% DMSO).

For data set [2], the system named is b-catenin transcription activity in brain endothelial cells of CCM3-ECKO mice. In words: Immunostaining of brain sections of CCM3-ECKO mice (b-gal reporter, progenitor/EndMT markers, VE-cadherin). In kind it is in vivo, mouse. The following applies: CCM3-ECKO pups, dpn 9. The text has this:
(§2) The CCM3-flox/flox mice were generated at TaconicArtemis (Koeln, Germany). Two P-lox sequences were inserted that flank exons 4 and 5 of the murine CCM3 gene, to produce a loss-of-function mutation after excision by Ore recombinase. These CCM3-flox/flox mice were bred with Cdh5(PAC)-CreERT2 mice (Wang et al, 2010) for tamoxifen-inducible endothelial-cell-specific expression of Ore-recombinase and CCM3 gene recombination. The CCM3-flox/flox-Cdh5(PAC)-CreERT2 mice were further bred with BAT-gal mice (Maretto et al, 2003) to monitor the activation of b-catenin transcription signaling, and with Rosa 26-Enhanced […] Fluorescent Protein (EYFP) (Rosa26EYFP) mice (Srinivas et al, 2001) to monitor the expression of Ore-recombinase through the expression of EYFP. Tamoxifen (Sigma) was dissolved in corn oil and 10% ethanol (at 10 mg/ml), and then diluted 1:5 in corn oil before single intragastric administration to dpn 1-2 pups (35 mg/kg body weight), as described in^14. The control (wild-type) mice included CCM3-flox/flox-Cdh5(PAC)-CreERT2-BAT-gal mice treated with the vehicle used to dissolve the tamoxifen (corn oil plus 2% ethanol), and CCM3^+/+-Cdh5(PAC)-CreERT2-BAT-gal mice treated with tamoxifen.
(§3) Brains and eyes from mice pups were fixed in 3% paraformaldehyde immediately after dissection, and this fixing was continued overnight at 4° C. The retinas were dissected from the eyes just before staining as the whole mount. Fixed brains were embedded in 4% low-melting-point agarose and sectioned along the sagittal axis ([…]) using a vibratome (1000 Plus, The Vibratome Company, St. Louis, Mo., US).
Brain sections and retinas were stained as floating samples in 12-well and 96-well plates, respectively. They were blocked overnight at 4° C. in 1% fish-skin gelatin with 0.5% Triton X100 and 5% donkey serum in phosphate-buffered saline (PBS) containing 0.01% thimerosal. The samples were incubated overnight at 4° C. with the primary antibodies diluted in 1% fish-skin gelatin with 0.25% Triton X100 in PBS containing 0.01% thimerosal. Following washing with 0.1% Triton X100 in PBS, the secondary antibodies were added for 4 h at room temperature in 1% fish-skin gelatin with 0.25% Triton X100 in PBS containing 0.01% thimerosal. The incubation with DAPI was in PBS for 4 h, which was followed by several washes in PBS, post-fixating with 3% paraformaldehyde for 5 min at room temperature, and further washes in PBS. The brain sections were mounted in Vectashield with DAPI, and the coverslips fixed with nail varnish; the retinas were mounted in Prolong gold with DAPI.
(§4) The following antibodies were used: anti-Pecam (hamster; MAB1398Z, Millipore); anti-b-galactosidase (chicken; ab9361, Abcam); anti-VE-cadherin (rat monoclonal; 550548, BD Biosciences); anti-VE-cadherin (goat; sc-6458, Santa Cruz); anti-active-b-catenin (mouse monoclonal clone 8E7) dephosphorylated on Ser37 and Thr41, Millipore); anti-total-b-catenin (mouse monoclonal; Cell Signaling); anti-S100a4 (rabbit; 07-2274, Millipore); anti-Klf4 (goat; AF3158, R&D); anti-CD44 (rat; 553131, BD Biosciences); anti-ID1 (rabbit; sc-488, Santa Cruz); anti-aSMA (mouse monoclonal; F3777, Sigma); anti-GFP (rabbit; A-6455, Invitrogen); anti-podocalyxin (goat; AF1556, R&D); anti-phospho-histone H3 (rabbit; ab51776, Millipore); anti-CCM3 (rabbit; Eurogentec); anti-p-Smad1 (rabbit; 9516, Cell Signaling); anti-endomucin (rabbit; sc-65495, Santa Cruz); anti-α-tubulin (mouse monoclonal; T9026, Sigma).

Data set [3] has as its system vascular lesions in the brain of CCM3-ECKO mice. In words: Assessment of lesion burden in brains of CCM3-ECKO mice. The following applies: CCM3-ECKO pups dpn 9; 30 mg/kg intragastrically daily; controls 166.8±22 (sulfide study), 153.5±28 (sulfone study). In kind it is in vivo, mouse.
From the text: as §2, §3
For the classification and counting of lesions, entire brains from dpn 9 littermate pups were sectioned and immunostained for Pecam as described above and in the Methods. Sections were then examined under wide-field fluorescence microscopy (10× and 20×). Lesions were classified as described in^63 as mulberry (multiple cavernae, group of more than two contiguous cavernae), single caverna (single dilated vessel with maximal diameter accommodating more than 25 red blood cells), or telangiectases, tortuous small vessels with abnormally dilated lumen). The total numbers of lesions were calculated by summing all of the types of lesions.
As the sections were […], a correction was applied to the number of mulberry lesions, which can span two sections. Therefore, the number of mulberry lesions was divided by […]. The lesions were counted and classified independently by two observers who were blinded to the treatments.
The maximal diameter of the mulberry lesions and single cavernae was used for statistical comparison.

In data set [4] the test system is CCM1 KO endothelial cells. In words: Expression of EndMT markers in CCM1 KO endothelial cells in culture. In kind it is cell-based, mouse. On the procedure:
as §1
(§5) RNA extraction was performed with RNeasy kits (74106; […]). The RNA (1 μg) was reverse transcribed with random hexamers (High Capacity cDNA Archive kits; Applied Biosystems). The cDNA was amplified with TaqMan gene expression assays (Applied Biosystems) using a 7900 HT thermocycler (ABI/Prism). For each sample, the expression levels were determined with the comparative threshold cycle (Ct) method, and normalized to the housekeeping genes encoding 18S and glyceraldehyde-3-phosphate dehydrogenase (GAPDH). For amplification, the following probes (Applied Biosystems) that have been validated to recognize the mouse transcripts in rtPCR were used: Axin2, Nkd1, Lef1, ccnd1, cMyc-Klf4, Ly6a, S100a4, Id1, Cdh2, Acta2, CD44. The probes to identify the CCM3 mRNA transcript were custom designed, as: forward, […] (SEQ ID No. 12); reverse, GCTCTGGCCGCTCAATCA (SEQ ID No. 13); reporter sequence, […] (SEQ ID No. 14).

Another data set concerns platelets. To be noted: cited from earlier work.
The test system of the next data set is cyclooxygenase. The following applies: reported; cited from earlier work.
For data set [5], the system named is CCM1 KO endothelial cells. In words: Endothelial cell-to-cell contacts in CCM1 KO endothelial cells in culture. In kind it is cell-based, mouse.
Data set [6] relates to CCM3-knockout endothelial cell line. In words: rtPCR of b-catenin target gene and progenitor/EndMT markers in CCM3-knockout endothelial cell line. Format: cell-based, mouse. The following applies: 48 h; 135 mM sulindac sulfide, 125 mM sulindac sulfone, 200 mM silibinin, 250 mM salinomycin. As to the method: (§6) In some experiments, endothelial cell lines from the lungs of CCM3-flox/flox mice (8-10 weeks old) were immortalized in culture through retroviral expression of polyoma middle T gene^60. […] These cells were then maintained in culture for up to 25 passages without detectable changes in the effects of this CCM3 ablation.
(§7) Drugs were added to confluent cells for 48 h before the indicated assays. The final concentrations used were: […] (all from Sigma-Aldrich). As all of these were dissolved in DMSO, control treatment (vehicle) was 0.1% DMSO final concentration, as for drug treatment.
as §5

The test system is the same in data set [7]. In words: Immunostaining of CCM3-knockout endothelial cell line. Format: cell-based, mouse. To be noted: 48 h. As to the method:
as §6, §7
Cells cultured in vitro were fixed and stained as described previously^46.
as §4

Consider `CC1=C(CC(=O)O)c2cc(F)ccc2/C1=C\c1ccc(S(C)(=O)=O)cc1` [sulindac sulfone, (Z)-5-Fluoro-2-methyl-1-[4-(methylsulfonyl)benzylidene]indene-3-acetic acid], for which the “formation of cavernoma lesions in the brain” value in data set [1] is “inhibits”. In addition, the “bleeding from vascular lesions or mortality versus vehicle-treated mice” value in the data set on CCM3-ECKO mice is reported as “did not observe either increased bleeding from vascular lesions or mortality”. In data set [2], the “VE-cadherin localization at endothelial cell-cell junctions in brain vessels” value is on record as “restored its localization to cell-cell junctions”. In addition, in data set [2] (immunostaining), the “expression of b-catenin target genes / progenitor and EndMT markers (Klf4, S100a4, Id1) in brain endothelium” value was “reduced this nuclear reactivity; also recorded: inhibited”. In addition, the “mean number (±SD) of vascular lesions per brain” value in [3] amounted to 68.6±10. Further, the “expression of EndMT markers” value in data set [4] is recorded as “inhibits”. Further, the “expression of EndMT markers” value in data set [4] (listed as exisulind) is “inhibition”. In addition, the anti-platelet activity entry in the data set with platelets is recorded as “lacks anti-platelet activity”. Also, the anti-cyclooxygenase activity result in the data set on cyclooxygenase is recorded as “devoid of anti-cyclooxygenase activity”. In addition, the “organization of endothelial cell-to-cell contacts” value in data set [5] is on record as “induces re-organization”. Further, in data set [6], the “inhibition of transcription of Axin2, Klf4 and S100a4 (rtPCR)” value is recorded as “greatest inhibition; also recorded: most effective”. Also, in data set [7], the “nuclear accumulation of active b-catenin / distribution to adherens junctions” value is “inhibited; also recorded: reduced” and the “overexpression of progenitor/EndMT marker proteins (Klf4, S100a4, Id1, CD44)” value is “strongly reduced; also recorded: inhibited”.

Values taken from patent US20170027896A1, “METHODS AND COMPOSITIONS FOR THE TREATMENT OF VASCULAR MALFORMATION” (IFOM - FONDAZIONE ISTITUTO FIRC DI ONCOLOGIA MOLECOLARE, priority 2014, published 2017).
